From the supplement of paper PMC11061612

Key:
Assay in all cases: combination Emax (second highest fraction inhibited in the dose matrix, 72 h); higher = more inhibition; extreme values may be limits of the assay
[1] = tested on: ASH-3 (Thyroid Gland Carcinoma)
In short: (§1)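 After 24 hours at 37°C and 5% CO2 in 1536-well plates, cells in DMEM/F12 or RPMI plus 10% FBS received two-drug dose matrices for 72 hours. Viability came from CellTiter-Glo 2.0 luminescence and was scaled as inhibition, anchored at 0 by vehicle wells and at 1 by blank wells. Combination Emax is taken as the second-highest inhibition in the matrix, and Bliss excess as the observed combination effect less EA + EB − EA·EB, with EA and EB the single-agent effects.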

[2] = tested on: DG-75 (Burkitt's Lymphoma)
In short: as §1

EW-13 (Ewing's Sarcoma) = tested on: EW-13 (Ewing's Sarcoma)
In short: as §1

EW-3 (Ewing's Sarcoma) = tested on: EW-3 (Ewing's Sarcoma)
In short: as §1

GOTO (Neuroblastoma) = tested on: GOTO (Neuroblastoma)
In short: as §1

[3] = tested on: H-EMC-SS (Chondrosarcoma)
In short: as §1

[4] = tested on: HSC-2 (Oral Cavity Carcinoma)
In short: as §1

[5] = tested on: JHH-7 (Hepatocellular Carcinoma)
In short: as §1

[6] = tested on: KP-2 (Pancreatic Carcinoma)
In short: as §1

[7] = tested on: KYSE-50 (Esophageal Squamous Cell Carcinoma)
In short: as §1

[8] = tested on: LOU-NH91 (Squamous Cell Lung Carcinoma)
In short: as §1

[9] = tested on: MFE-319 (Endometrial Carcinoma)
In short: as §1

[10] = tested on: NCI-H2405 (Lung Adenocarcinoma)
In short: as §1

[11] = tested on: NCI-N87 (Gastric Carcinoma)
In short: as §1

[12] = tested on: OCUB-M (Breast Carcinoma)
In short: as §1

[13] = tested on: OCUM-1 (Gastric Carcinoma)
In short: as §1

[14] = tested on: PF-382 (T-Lymphoblastic Leukemia)
In short: as §1

[15] = tested on: SNU-C1 (Colorectal Carcinoma)
In short: as §1

[16] = tested on: TGBC11TKB (Gastric Carcinoma)
In short: as §1

[17] = tested on: VMRC-LCD (Lung Adenocarcinoma)
In short: as §1

## CCc1c2c(nc3ccc(O)cc13)-c1cc3c(c(=O)n1C2)COC(=O)[C@]3(O)CC [SN-38] + O=C(c1cc(Cc2n[nH]c(=O)c3ccccc23)ccc1F)N1CCN(C(=O)C2CC2)CC1 [Olaparib] (first compound max 0.3 µM, 7x7, partner max 10 µM)
[1]
  combination Emax: 0.912
[2]
  combination Emax: 0.852
EW-13 (Ewing's Sarcoma)
  combination Emax: 0.811
EW-3 (Ewing's Sarcoma)
  combination Emax: 0.884
GOTO (Neuroblastoma)
  combination Emax: 0.879
[3]
  combination Emax: 0.676
[4]
  combination Emax: 0.977
[5]
  combination Emax: 0.289
[6]
  combination Emax: 0.55
[7]
  combination Emax: 0.269
[8]
  combination Emax: 0.883
[9]
  combination Emax: 0.301
[10]
  combination Emax: 0.472
[11]
  combination Emax: 0.722
[12]
  combination Emax: 0.922
[13]
  combination Emax: 0.645
[14]
  combination Emax: 1
[15]
  combination Emax: 0.349
[16]
  combination Emax: 0.792
[17]
  combination Emax: 0.121
